Target: Metabotropic glutamate receptor 1 (Homo sapiens, UniProt Q13255)
Assay: Negative allosteric modulation of human mGluR1alpha expressed in syrian hamster AV-12 cells assessed as inhibition of quisqualate-induced phosphoinositide hydrolysis
Format: cell-based, AV12

Metabotropic glutamate receptor 1, sequence (Q13255 whole entry): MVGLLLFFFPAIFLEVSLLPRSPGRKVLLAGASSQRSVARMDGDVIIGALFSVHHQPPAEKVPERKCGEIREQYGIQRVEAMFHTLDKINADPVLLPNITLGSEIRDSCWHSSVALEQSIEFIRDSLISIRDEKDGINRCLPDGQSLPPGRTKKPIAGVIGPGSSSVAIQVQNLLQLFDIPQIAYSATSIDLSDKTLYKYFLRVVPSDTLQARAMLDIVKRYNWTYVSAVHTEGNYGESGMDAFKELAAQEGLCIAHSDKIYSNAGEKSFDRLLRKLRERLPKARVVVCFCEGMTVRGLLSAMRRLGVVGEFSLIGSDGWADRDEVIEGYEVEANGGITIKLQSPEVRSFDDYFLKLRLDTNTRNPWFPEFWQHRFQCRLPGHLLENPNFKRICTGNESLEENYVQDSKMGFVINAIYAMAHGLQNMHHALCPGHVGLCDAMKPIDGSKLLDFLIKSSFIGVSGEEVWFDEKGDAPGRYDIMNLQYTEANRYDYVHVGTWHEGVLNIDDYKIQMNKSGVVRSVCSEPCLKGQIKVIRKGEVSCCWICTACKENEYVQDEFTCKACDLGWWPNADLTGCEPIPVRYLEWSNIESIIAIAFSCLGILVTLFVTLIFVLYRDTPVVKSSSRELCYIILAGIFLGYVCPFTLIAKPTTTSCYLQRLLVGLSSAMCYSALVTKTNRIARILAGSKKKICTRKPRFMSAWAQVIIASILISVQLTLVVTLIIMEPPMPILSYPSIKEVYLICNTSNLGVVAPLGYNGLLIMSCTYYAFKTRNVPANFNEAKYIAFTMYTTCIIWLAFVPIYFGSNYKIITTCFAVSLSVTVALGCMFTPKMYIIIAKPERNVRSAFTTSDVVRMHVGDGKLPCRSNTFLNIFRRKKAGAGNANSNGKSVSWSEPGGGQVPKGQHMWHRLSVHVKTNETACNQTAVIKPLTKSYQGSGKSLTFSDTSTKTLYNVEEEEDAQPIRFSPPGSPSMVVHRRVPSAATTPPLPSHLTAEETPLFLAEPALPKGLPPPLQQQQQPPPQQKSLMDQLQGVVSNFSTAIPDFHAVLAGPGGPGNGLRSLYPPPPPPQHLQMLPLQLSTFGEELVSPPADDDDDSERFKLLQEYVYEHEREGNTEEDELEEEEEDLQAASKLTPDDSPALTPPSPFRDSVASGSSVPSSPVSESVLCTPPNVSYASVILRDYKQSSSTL

SMILES: Cc1cc(C(=O)O)ccc1[C@H](N)C(=O)O
- IC50: 8 µM

From ChEMBL document CHEMBL3588795, “GPCR crystal structures: Medicinal chemistry in the pocket” (Bioorg Med Chem, 2015)
